The source made the active and inactive calls. How the calls were made is not given here.
What was measured:
Experiment in all cases: potency against CXCR6 with APJ panel – cell-based, beta-arrestin, DiscoveRx, uHTS hits, dose response (AID 624129)
[1] = biological target: Apelin receptor (Homo sapiens) (UniProt P35414); settings: CXCR6 beta-arrestin (DiscoveRx) antagonist cell assay, APJ
[2] = biological target: C-C chemokine receptor type 6 (Homo sapiens) (UniProt P51684); settings: CXCR6 beta-arrestin (DiscoveRx) antagonist cell assay
[3] = biological target: C-X-C chemokine receptor type 6 (Homo sapiens) (UniProt O00574); settings: CXCR6 beta-arrestin (DiscoveRx) antagonist cell assay
[4] = biological target: Beta-galactosidase (Escherichia coli) (UniProt Q8VNN2); settings: CXCR6 beta-arrestin (DiscoveRx) antagonist cell assay, b-galactosidase
[5] = dose range 1, mean IC50 across replicates
[6] = CCR6, dose range 1, mean IC50 across replicates
[7] = CXCR6, dose range 1, mean IC50 across replicates
[8] = CXCR6, run 1, dose range 2, at 80 µM (top of the series)

Sequence of C-X-C chemokine receptor type 6 (Homo sapiens) (O00574 whole entry, looked up): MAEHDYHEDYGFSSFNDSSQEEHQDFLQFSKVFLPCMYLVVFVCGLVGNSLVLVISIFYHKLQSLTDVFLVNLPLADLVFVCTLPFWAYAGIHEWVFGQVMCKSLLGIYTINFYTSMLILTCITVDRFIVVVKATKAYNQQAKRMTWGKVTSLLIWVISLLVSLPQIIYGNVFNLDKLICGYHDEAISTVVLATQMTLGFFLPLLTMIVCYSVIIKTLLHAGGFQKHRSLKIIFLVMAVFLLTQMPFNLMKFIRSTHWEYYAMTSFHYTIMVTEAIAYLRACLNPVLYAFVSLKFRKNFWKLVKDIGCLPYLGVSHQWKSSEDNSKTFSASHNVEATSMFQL
Sequence of Beta-galactosidase (Escherichia coli) (Q8VNN2 whole entry, looked up): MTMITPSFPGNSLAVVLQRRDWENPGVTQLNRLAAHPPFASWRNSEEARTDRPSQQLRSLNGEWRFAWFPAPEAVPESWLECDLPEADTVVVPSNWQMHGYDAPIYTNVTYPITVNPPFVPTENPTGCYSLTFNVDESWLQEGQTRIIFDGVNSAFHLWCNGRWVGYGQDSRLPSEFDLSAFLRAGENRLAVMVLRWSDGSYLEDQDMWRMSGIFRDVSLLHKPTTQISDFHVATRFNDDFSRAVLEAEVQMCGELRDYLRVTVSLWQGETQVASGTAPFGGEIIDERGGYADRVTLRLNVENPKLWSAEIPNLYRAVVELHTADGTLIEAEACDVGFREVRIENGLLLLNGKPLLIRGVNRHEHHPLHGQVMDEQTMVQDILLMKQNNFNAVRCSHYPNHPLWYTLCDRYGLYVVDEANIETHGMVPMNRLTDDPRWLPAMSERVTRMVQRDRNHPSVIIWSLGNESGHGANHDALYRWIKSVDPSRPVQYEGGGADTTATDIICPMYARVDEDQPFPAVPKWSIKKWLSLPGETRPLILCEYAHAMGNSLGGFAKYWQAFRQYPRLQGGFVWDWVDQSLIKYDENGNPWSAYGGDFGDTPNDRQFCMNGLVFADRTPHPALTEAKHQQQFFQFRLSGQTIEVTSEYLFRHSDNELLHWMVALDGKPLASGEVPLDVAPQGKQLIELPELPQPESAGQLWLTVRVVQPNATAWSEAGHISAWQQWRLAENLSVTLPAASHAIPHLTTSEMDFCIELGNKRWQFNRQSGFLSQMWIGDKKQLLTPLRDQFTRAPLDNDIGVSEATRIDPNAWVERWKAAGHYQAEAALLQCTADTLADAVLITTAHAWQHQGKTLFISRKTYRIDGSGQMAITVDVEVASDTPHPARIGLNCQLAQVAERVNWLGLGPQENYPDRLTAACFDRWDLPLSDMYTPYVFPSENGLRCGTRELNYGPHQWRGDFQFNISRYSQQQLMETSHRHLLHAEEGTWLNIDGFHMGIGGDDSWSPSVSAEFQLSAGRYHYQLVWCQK

## CC1(C)CC(=O)C(C=Nc2ccc(C(=O)c3ccccc3)cc2N=CC2=C(O)CC(C)(C)CC2=O)=C(O)C1
[1]; dose range 1
  IC50: inactive
[1]; [5]
  IC50: 60 µM
[1]; run 2, dose range 1
  IC50: 62.7 µM
[1]; run 3, dose range 1
  IC50: 75.9 µM
[2]; CCR6, dose range 1
  IC50: 3.9 µM
[2]; [6]
  IC50: 5.09 µM
[2]; CCR6, run 2, dose range 1
  IC50: 6.27 µM
[3]; CXCR6, dose range 1
  IC50: inactive
[3]; [7]
  IC50: 11.2 µM
[3]; CXCR6, run 1, dose range 2
  IC50: 0.963 µM
[3]; CXCR6, run 2, dose range 1
  IC50: 36.3 µM
[3]; CXCR6, run 2, dose range 2
  IC50: 2.7 µM
[4]; dose range 1
  IC50: > 80 µM (inactive)
[4]; [5]
  IC50: > 80 µM

## Cc1ccc2c(c1)C1CN(C)CCC1N2C(=S)NC(=O)c1ccc(Br)cc1 (configuration not stated)
[1]; dose range 1
  IC50: 12.9 µM
[1]; [5]
  IC50: 12 µM
[1]; run 2, dose range 1
  IC50: 10.9 µM
[1]; run 3, dose range 1
  IC50: 12.3 µM
[2]; CCR6, dose range 1
  IC50: 12.5 µM
[2]; [6]
  IC50: 14 µM
[2]; CCR6, run 2, dose range 1
  IC50: 15.5 µM
[3]; CXCR6, dose range 1
  IC50: inactive
[3]; [7]
  IC50: 12.5 µM
[3]; CXCR6, run 1, dose range 2
  IC50: 6.99 µM
[3]; CXCR6, run 2, dose range 1
  IC50: 18.4 µM
[3]; CXCR6, run 2, dose range 2
  IC50: 11.2 µM
[4]; dose range 1
  IC50: > 80 µM (inactive)
[4]; [5]
  IC50: > 80 µM

## Cc1ccc(C(C[N+](=O)[O-])Sc2ccc(N)cc2)cc1 (configuration not stated)
[1]; dose range 1
  IC50: 15.5 µM
[1]; [5]
  IC50: 19.1 µM
[1]; run 2, dose range 1
  IC50: 22.8 µM
[1]; run 3, dose range 1
  IC50: > 80 µM
[2]; CCR6, dose range 1
  IC50: 14.3 µM
[2]; [6]
  IC50: 18.8 µM
[2]; CCR6, run 2, dose range 1
  IC50: 23.3 µM
[3]; CXCR6, dose range 1
  IC50: inactive
[3]; [7]
  IC50: 21.8 µM
[3]; [8]
  inhibition: 157%
[3]; CXCR6, run 2, dose range 1
  IC50: 24 µM
[4]; dose range 1
  IC50: 31.8 µM
[4]; [5]
  IC50: 31.8 µM

## Cc1ccc(NC(=S)N/N=C/c2ccc([N+](=O)[O-])s2)cc1
[1]; dose range 1
  IC50: 9.42 µM
[1]; [5]
  IC50: 19.2 µM
[1]; run 2, dose range 1
  IC50: 18.1 µM
[1]; run 3, dose range 1
  IC50: 30 µM
[2]; CCR6, dose range 1
  IC50: 3.88 µM
[2]; [6]
  IC50: 5.06 µM
[2]; CCR6, run 2, dose range 1
  IC50: 6.24 µM
[3]; CXCR6, dose range 1
  IC50: 9.1 µM
[3]; [7]
  IC50: 7.46 µM
[3]; CXCR6, run 1, dose range 2
  IC50: 5.64 µM
[3]; CXCR6, run 2, dose range 1
  IC50: 8.89 µM
[3]; CXCR6, run 2, dose range 2
  IC50: 6.21 µM
[4]; dose range 1
  IC50: 31.3 µM
[4]; [5]
  IC50: 31.3 µM

## O=[N+]([O-])c1cc2oc3c(c2c(C=NCc2ccccc2)c1O)CCCC3
[1]; dose range 1
  IC50: 25.5 µM
[1]; [5]
  IC50: 25.5 µM
[1]; run 2, dose range 1
  IC50: > 80 µM
[1]; run 3, dose range 1
  IC50: > 80 µM
[2]; CCR6, dose range 1
  IC50: 27.3 µM
[2]; [6]
  IC50: 39.8 µM
[2]; CCR6, run 2, dose range 1
  IC50: 52.2 µM
[3]; CXCR6, dose range 1
  IC50: inactive
[3]; [7]
  IC50: 20.9 µM
[3]; CXCR6, run 1, dose range 2
  IC50: 4.04 µM
[3]; CXCR6, run 2, dose range 1
  IC50: > 80 µM
[3]; CXCR6, run 2, dose range 2
  IC50: 6.46 µM
[4]; dose range 1
  IC50: > 80 µM (inactive)
[4]; [5]
  IC50: > 80 µM

## Cc1ccc(OCCN2C(=O)c3ccccc3C2=O)c([N+](=O)[O-])c1
[1]; dose range 1
  IC50: 4.29 µM
[1]; [5]
  IC50: 5.81 µM
[1]; run 2, dose range 1
  IC50: 7.87 µM
[1]; run 3, dose range 1
  IC50: 5.29 µM
[2]; CCR6, dose range 1
  IC50: 8.16 µM
[2]; [6]
  IC50: 6.82 µM
[2]; CCR6, run 2, dose range 1
  IC50: 5.48 µM
[3]; CXCR6, dose range 1
  IC50: 6.4 µM
[3]; [7]
  IC50: 5.31 µM
[3]; CXCR6, run 1, dose range 2
  IC50: 5.94 µM
[3]; CXCR6, run 2, dose range 1
  IC50: 4.95 µM
[3]; CXCR6, run 2, dose range 2
  IC50: 3.96 µM
[4]; dose range 1
  IC50: > 80 µM (inactive)
[4]; [5]
  IC50: > 80 µM

## COC(=O)[C@@H]1[C@@H](C#N)C2(c3ccccc3-c3ccccc32)N(c2ccc(Cl)cc2)N1C#N
[1]; [5]
  IC50: > 80 µM
[1]; run 2, dose range 1
  IC50: > 80 µM
[1]; run 3, dose range 1
  IC50: > 80 µM
[2]; [6]
  IC50: > 80 µM
[2]; CCR6, run 2, dose range 1
  IC50: > 80 µM
[3]; CXCR6, dose range 1
  IC50: > 80 µM (inactive)
[3]; [7]
  IC50: > 80 µM
[3]; [8]
  inhibition: 11.1%
[3]; CXCR6, run 2, dose range 1
  IC50: > 80 µM
[4]; dose range 1
  IC50: > 80 µM (inactive)
[4]; [5]
  IC50: > 80 µM

## O=C(/C=C/c1cccc([N+](=O)[O-])c1)c1ccc([N+](=O)[O-])o1
[1]; [5]
  IC50: > 80 µM
[1]; run 2, dose range 1
  IC50: > 80 µM
[1]; run 3, dose range 1
  IC50: > 80 µM
[2]; CCR6, dose range 1
  IC50: 6.68 µM
[2]; [6]
  IC50: 20.8 µM
[2]; CCR6, run 2, dose range 1
  IC50: 34.9 µM
[3]; CXCR6, dose range 1
  IC50: inactive
[3]; [7]
  IC50: 19 µM
[3]; CXCR6, run 1, dose range 2
  IC50: 7.73 µM
[3]; CXCR6, run 2, dose range 1
  IC50: > 80 µM
[3]; CXCR6, run 2, dose range 2
  IC50: 7.58 µM
[4]; dose range 1
  IC50: > 80 µM (inactive)
[4]; [5]
  IC50: > 80 µM

## CN(O)C(=S)c1ccccc1
[1]; dose range 1
  IC50: 2.41 µM
[1]; [5]
  IC50: 4.68 µM
[1]; run 2, dose range 1
  IC50: 6.23 µM
[1]; run 3, dose range 1
  IC50: 5.39 µM
[2]; CCR6, dose range 1
  IC50: 0.724 µM
[2]; [6]
  IC50: 1.31 µM
[2]; CCR6, run 2, dose range 1
  IC50: 1.89 µM
[3]; CXCR6, dose range 1
  IC50: 1.67 µM
[3]; [7]
  IC50: 1.58 µM
[3]; CXCR6, run 1, dose range 2, at 40 µM (top of the series)
  inhibition: 90.8%
[3]; CXCR6, run 2, dose range 1
  IC50: 1.48 µM
[4]; dose range 1
  IC50: > 80 µM (inactive)
[4]; [5]
  IC50: > 80 µM

## Cc1ccc(OCCn2c(NC(=O)c3ccco3)nc3ccccc32)cc1
[1]; dose range 1
  IC50: 11.3 µM
[1]; [5]
  IC50: 10.3 µM
[1]; run 2, dose range 1
  IC50: 8.87 µM
[1]; run 3, dose range 1
  IC50: 10.8 µM
[2]; CCR6, dose range 1
  IC50: 4.28 µM
[2]; [6]
  IC50: 3.98 µM
[2]; CCR6, run 2, dose range 1
  IC50: 3.68 µM
[3]; CXCR6, dose range 1
  IC50: 6.41 µM
[3]; [7]
  IC50: 6.79 µM
[3]; [8]
  inhibition: 146%
[3]; CXCR6, run 2, dose range 1
  IC50: 7.16 µM
[4]; dose range 1
  IC50: 32.8 µM
[4]; [5]
  IC50: 32.8 µM

## CCOc1ccccc1NC(=O)c1nc(S(=O)(=O)Cc2ccccc2)ncc1Cl
[1]; dose range 1
  IC50: 13.4 µM
[1]; [5]
  IC50: 13.4 µM
[1]; run 2, dose range 1
  IC50: 13.4 µM
[1]; run 3, dose range 1
  IC50: > 80 µM
[2]; CCR6, dose range 1
  IC50: 8.24 µM
[2]; [6]
  IC50: 7.46 µM
[2]; CCR6, run 2, dose range 1
  IC50: 6.69 µM
[3]; CXCR6, dose range 1
  IC50: 9.59 µM
[3]; [7]
  IC50: 10.7 µM
[3]; CXCR6, run 1, dose range 2
  IC50: 11.2 µM
[3]; CXCR6, run 2, dose range 1
  IC50: 11.5 µM
[3]; CXCR6, run 2, dose range 2
  IC50: 10.7 µM
[4]; dose range 1
  IC50: > 80 µM (inactive)
[4]; [5]
  IC50: > 80 µM
